Source: the NIST ThermoML archive (doi:10.1021/acs.jced.5b00919)
Numbers after ± are expanded uncertainties.

Test: activity coefficient (dimensionless); of the first substance listed, at infinite dilution; xn = mol fraction of the nth substance listed
Settings: 101 kPa, Liquid, Chromatography, x1 = 0

activity coefficient (338.15 K)	activity coefficient (348.15 K)	activity coefficient (358.15 K)	activity coefficient (368.15 K)	SMILES
0.4 ± 0.03	0.31 ± 0.03	0.25 ± 0.03	0.22 ± 0.03	CCCCO [butan-1-ol] + CCCC[N+](C)(CCCC)CCCC.COS(=O)(=O)[O-]
0.29 ± 0.03	0.24 ± 0.03	0.21 ± 0.03	0.18 ± 0.03	CCCO [propan-1-ol] + CCCC[N+](C)(CCCC)CCCC.COS(=O)(=O)[O-]

Further lines, the compound ahead of its results:

SMILES	activity coefficient (338.15 K)	activity coefficient (348.15 K)	activity coefficient (358.15 K)	activity coefficient (368.15 K)
CC(C)(C)O [2-methylpropan-2-ol] + CCCC[N+](C)(CCCC)CCCC.COS(=O)(=O)[O-]	0.32 ± 0.03	0.28 ± 0.03	0.25 ± 0.03	0.23 ± 0.03
CCC(C)O (centres undefined) [butan-2-ol] + CCCC[N+](C)(CCCC)CCCC.COS(=O)(=O)[O-]	0.38 ± 0.03	0.29 ± 0.03	0.24 ± 0.03	0.2 ± 0.03
CCO [ethanol] + CCCC[N+](C)(CCCC)CCCC.COS(=O)(=O)[O-]	0.24 ± 0.03	0.2 ± 0.03	0.19 ± 0.03	0.17 ± 0.03
CO [methanol] + CCCC[N+](C)(CCCC)CCCC.COS(=O)(=O)[O-]	0.16 ± 0.03	0.15 ± 0.03	0.14 ± 0.03	0.13 ± 0.03
